Measurements as given in the NIST ThermoML archive (doi:10.1016/j.jct.2018.12.022).

Legend:
[1] = mn = molality of the nth substance listed, in mol/kg; settings: 85 kPa, Liquid; for viscosity: Falling or rolling sphere viscometry; for speed of sound: Frequency=3 MHz, Single path-length method; for mass density: Vibrating tube method
[2] = refractive index (Na D-line) (dimensionless); mn = molality of the nth substance listed, in mol/kg; settings: 85 kPa, Liquid, Standard Abbe refractometry

C[C@H](N)C(=O)[O-].C[N+](C)(C)CCO [2-hydroxy-N,N,N-trimethylethanaminium L-alaninate] + O
Settings | mass density, [1] [kg/m3] | refractive index, [2] | speed of sound, [1] [m/s] | viscosity, [1] [mPa·s]
288.15 K, m1 = 0.0108 | 999.398 | 1.3338 | 1468 | 1.143
288.15 K, m1 = 0.0204 | 999.663 | 1.334 | 1469.3 | 1.147
288.15 K, m1 = 0.03 | 999.914 | 1.3342 | 1470.7 | 1.151
288.15 K, m1 = 0.0401 | 1000.17 | 1.3345 | 1472.1 | 1.155
288.15 K, m1 = 0.0509 | 1000.44 | 1.3349 | 1473.6 | 1.16
288.15 K, m1 = 0.0583 | 1000.62 | 1.3351 | 1474.6 | 1.163
298.15 K, m1 = 0.0108 | 997.345 | 1.3331 | 1498.4 | 0.897
298.15 K, m1 = 0.0204 | 997.608 | 1.3333 | 1499.7 | 0.9
298.15 K, m1 = 0.03 | 997.858 | 1.3335 | 1501 | 0.903
298.15 K, m1 = 0.0401 | 998.115 | 1.3337 | 1502.4 | 0.906
298.15 K, m1 = 0.0509 | 998.382 | 1.3341 | 1503.9 | 0.91
298.15 K, m1 = 0.0583 | 998.553 | 1.3343 | 1504.9 | 0.912
308.15 K, m1 = 0.0108 | 994.326 | 1.3319 | 1521.6 | 0.732
308.15 K, m1 = 0.0204 | 994.588 | 1.3321 | 1522.9 | 0.735
308.15 K, m1 = 0.03 | 994.839 | 1.3323 | 1524.2 | 0.737
308.15 K, m1 = 0.0401 | 995.097 | 1.3326 | 1525.6 | 0.74
308.15 K, m1 = 0.0509 | 995.362 | 1.333 | 1527 | 0.743
308.15 K, m1 = 0.0583 | 995.534 | 1.3333 | 1528 | 0.745
318.15 K, m1 = 0.0108 | 990.514 | 1.3304 | 1537.5 | 0.604
318.15 K, m1 = 0.0204 | 990.779 | 1.3306 | 1538.8 | 0.607
318.15 K, m1 = 0.03 | 991.029 | 1.3309 | 1540 | 0.609
318.15 K, m1 = 0.0401 | 991.289 | 1.3312 | 1541.3 | 0.611
318.15 K, m1 = 0.0509 | 991.561 | 1.3315 | 1542.8 | 0.613
318.15 K, m1 = 0.0583 | 991.728 | 1.3318 | 1543.7 | 0.615
